# Results reported in EP4782431A1 (Suzhou Merna Therapeutics Co. Ltd, priority 2023, dated 2025).
# Legend:
# [1] = tested on: rat models with a hand-foot skin reaction; assay: rat models with a hand-foot skin reaction; type: in vivo, SD rats
# Protocol: After adaptive feeding for one week, SD rats (with a body weight of approximately 200 g) were randomly divided into groups with balanced body weight, with 12 rats in each group. Modeling drugs (including sorafenib, erlotinib, afatinib, and osimertinib) were respectively dissolved in a solution containing 5% of DMSO, 45% of PEG400, and 50% of H2O, and the modeling drugs were diluted to required concentrations and then administered once daily by gavage at doses shown in Table 3. After administration by gavage for 1 hour, 0.05 g of ointments containing different mass proportions of test compounds were evenly applied to left paws of the rats, a blank matrix ointment was applied to right paws of the rats to serve as a self-control, and no ointment was applied to the rats in a blank control group. After drug application, four limbs were continuously immobilized for 2 hours, then wiped with clean water to remove the residual drugs, removed from immobilization, and restored to free movement. The modeling drugs, the blank matrix ointment, and the ointments containing the test compounds were all administered once daily. After continuous administration for 30 days, the rats were euthanized, and paw plantar skin tissues were collected, fixed in 10% neutral formalin, […]. The ointments for the test compounds were prepared by mixing the compounds, white beeswax, white petrolatum, and light liquid paraffin in specific ratios (weight ratios of 3 ointments were respectively 1:18:58:23, 3:18:57:22, and 10:20:40:30). The blank matrix ointment was prepared by mixing white beeswax, white petrolatum, and light liquid paraffin in a specific ratio (weight ratio of 18:60:22).
# Tissue staining: After dewaxing and rehydration, the paw plantar skin tissue sections of the above rats were stained in a hematoxylin solution for several minutes, cleaned, and placed in 1% acid alcohol for soaking until the sections faded to light blue-red. After cleaning with running water for 5 minutes, the sections were stained with eosin for 2-3 minutes, cleaned to remove excess dyes, dehydrated, then permeabilized by adding xylene for several minutes, and sealed and fixed with a neutral resin. The stratum corneum was observed under an optical microscope, and the thickness of the epidermal stratum corneum was measured using Dmetrix software.
# Immunohistochemical staining: After dewaxing and hydration, the paw plantar skin tissue sections of the above rats were incubated with 3% H2O2 at room temperature for 30 minutes and blocked with 10% goat serum for 30 minutes after antigen retrieval. A KRT1 antibody (Abcam, ab93652) and a Loricrin antibody (Abcam, ab183646) were added dropwise, the sections were incubated overnight at 4°C, and an HRP secondary antibody (ZSGB-BIO, PV-6001) and a DAB kit (ZSG-BIO, ZLI9017) were added for color development. The sections were re-stained with hematoxylin, cleaned, and sealed and fixed with a neutral resin, and the expression amounts of KRT1 and Loricrin were observed under an optical microscope.
# An incidence rate calculation method involves a proportion of animals in each group meeting the above criteria for determining successful modeling, that is, incidence rate = (number of successfully modeled rats/total number of rats in the group)*100%. […]
# [2] = tested on: kinase inhibitor-induced mouse model with hand-foot skin reaction; assay: kinase inhibitor-induced mouse model with hand-foot skin reaction; type: in vivo, ICR mice
# Text: After adaptive feeding for 7 days, SPF-grade ICR mice (male, 5-6 weeks old, with a body weight of approximately 35 g) were randomly divided into groups, including a blank control group (6 mice), a sorafenib modeling group (6 mice), an osimertinib modeling group (6 mice), a sorafenib + compound of formula (I) group (6 mice), an osimertinib + compound of formula (I) group (6 mice), a sorafenib + nicotinamide group (6 mice), and an osimertinib + nicotinamide group (6 mice). The groups were respectively administered corresponding modeling drugs by oral gavage (sorafenib at 100 mg/kg and osimertinib at 10 mg/kg) once daily; and the blank control group was administered an equivalent volume of normal saline. After administration with the chemotherapeutic drugs for 2 weeks, the ointments containing the compound of formula (I) (at a compound content of 3%) used in Example 10 were respectively applied topically in the groups, or nicotinamide was orally administered (100 mg/kg) once daily continuously for 16 days.
# Measurement of the degree of swelling of toes: The degree of swelling of hind limb toes of the mice was measured using a toe swelling tester (KW-7C, Nanjing Calvin Biotechnology Co., Ltd.) before administration with the modeling drugs, after administration with the modeling drugs for 2 weeks, and before sacrifice, respectively. Before measurement, ankle joints of hind feet of the mice were marked at same positions before administration, after administration for 2 weeks, and before sacrifice. During measurement, water was properly located at the same level as the marked positions, and numerical values were recorded after becoming stable.
# Pathological staining of skin tissues: Skin tissue samples were selected from hind limb toes of the mice and placed in 4% paraformaldehyde for fixation at room temperature for 4 hours. Then, the tissues were taken out and rinsed with running water for several hours. The samples were subjected to dehydration treatment with 70%, 80%, and 90% ethanol solutions, followed by treatment with a mixed solution of equal amounts of absolute alcohol and xylene for 15 minutes, and then permeabilized twice with a xylene solution for 15 minutes each time until the samples became transparent. The samples were placed in a mixture of half xylene and half paraffin for soaking for 15 minutes, and then, paraffin I and paraffin II were added for wax penetration for one hour, respectively. After embedding with paraffin, the samples were sectioned, baked, dewaxed, and hydrated. Then, the hydrated sections were placed in a hematoxylin solution (ZSGB-BIO, article No. 23041001) for staining for 3 minutes, and a differentiation solution of hydrochloric acid in ethanol was added for differentiation for 15 seconds. After rinsing with water, a Scott bluing solution (Servicebio, article No. 20230801) was added for bluing for 15 seconds. After rinsing with running water, the sections were stained with an eosin solution (Solarbio, article No. 33535) for 3 minutes, rinsed with running water, dehydrated, permeabilized, sealed, and inspected under a microscope.
# Immunohistochemical staining: After baking, dewaxing, and hydration, paraffin sections of skin tissues of hind limb toes of the mice were subjected to antigen retrieval using a 0.2 M citric acid buffer solution (containing 1.534 g of citric acid, 3.1 g of sodium citrate, and 100 mL of distilled water, pH 4.7). Endogenous […] was removed using 3% hydrogen peroxide (Shandong Annjet High-Tech Disinfection Technology Co., Ltd., article No. 20290902), and the sections were incubated at room temperature for 10 minutes and then fully rinsed with a PBS buffer solution (containing 8 g of NaCl, 0.2 g of KCl, 1.44 g of Na2HPO4, and 1 M HCl, pH 7.4). The sections were permeabilized with 0.5% Triton-X-100 (AmyJet Scientific, article No. A-CSH436-100 mL), respectively permeabilized with mouse anti-IL-1β and rabbit IL-8 for 10 minutes, and not permeabilized with rabbit anti-IL-6. […]
# [3] = modeling drug alone by gavage once daily 30 days (Sorafenib 100, Erlotinib 70, Afatinib 50, Osimertinib 60 mg/kg), no test compound
smiles,measurement,setting,value
"CNC(=O)c1cc(Oc2ccc(NC(=O)Nc3ccc(Cl)c(C(F)(F)F)c3)cc2)ccn1 [Sorafenib, sorafenib]",successful modeling rates for the hand-foot skin reaction,"[1]; SD rats, once daily by gavage: sorafenib 100, erlotinib 70, afatinib 50, osimertinib 60 mg/kg",75%
same,KRT1 and Loricrin in tissues,"[1]; immunohistochemical staining, successfully modeled rats, modeling drug alone",significantly increased
same,Incidence rate Left paw,[1]; [3],9/12 (75%)
same,Incidence rate Right paw,[1]; [3],9/12 (75%)
same,stratum corneum thickness of the paw plantar skin,"[1]; successfully modeled rats, modeling drug alone, vs normal rats",significantly higher than that of normal rats
same,cytokine IL-1β in the skin tissues of the hind limb toes of the mice,"[2]; modeling drug oral 14 days, vs normal control group, p<0.05",significantly increased
same,swelling of the hind limb toes of the mice,"[2]; modeling drug oral, 14 days: sorafenib 100 mg/kg, osimertinib 10 mg/kg",significant swelling of the hind limb toes of the mice was caused
same,epidermal layer and the stratum corneum in the skin tissues of the hind limb toes,"[2]; modeling drug oral, 14 days: sorafenib, osimertinib, vs normal control group",significantly thickened
same,skin of the hind limb toes of the mice (appearance),"[2]; modeling for 14 days: sorafenib 100 mg/kg, osimertinib 10 mg/kg oral gavage once daily, vs normal control group",obvious erythema and rhagades
